According to PubChem BioAssay (NCI):
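Growth conditions: 96-well plates. Treatment: test compound, 48 hours, 5 concentrations. Analysis: linear interpolation between bracketing concentrations; unreached endpoints set to highest concentration. Abbreviation: GI50, concentration required for 50% inhibition of growth. TGI is the concentration that stops growth completely.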

Experiments:
Assay in all cases: NCI-60 cell line screen, 48 h
[1] = system: KM12 colon
[2] = system: LOX IMVI melanoma
[3] = system: CAKI-1 renal
[4] = system: K-562 leukemia
[5] = system: TK-10 renal
[6] = system: SF-268 CNS
[7] = system: M14 melanoma
[8] = system: CCRF-CEM leukemia
[9] = system: HOP-92 NSCLC
[10] = system: NCI/ADR-RES ovarian

SMILES	TGI [1] [µM]	TGI [2] [µM]	TGI [3] [µM]	TGI [4] [µM]	TGI [5] [µM]	TGI [6] [µM]	TGI [7] [µM]	TGI [8] [µM]	TGI [9] [µM]	GI50 [1] [µM]	GI50 [2] [µM]	GI50 [10] [µM]	TGI [10] [µM]	GI50 [9] [µM]	GI50 [3] [µM]	GI50 [5] [µM]	GI50 [6] [µM]	GI50 [7] [µM]	GI50 [8] [µM]	GI50 [4] [µM]
Cc1cc2cc(Cl)ccc2nc1C(=O)c1ccccc1	> 100	> 100	> 100	> 100	> 100	> 100	> 100	–	–	–	–	–	–	–	–	–	–	–	–	–
COC(=O)CCC(=O)CC(=O)C(=O)Nc1ccc(F)cc1	> 100	> 100	> 100	> 100	> 100	> 100	> 100	> 100	> 100	–	–	–	–	–	–	–	–	–	–	–
CN(C)c1ccccc1CC(c1c[nH]c2ccccc12)c1c[nH]c2ccccc12	14.5	24.4	16.3	32.9	29.9	28.8	24	26.6	–	–	–	–	–	–	–	–	–	–	–	–
O=C(Nc1ccc(Cl)c(Cl)c1)C(=O)Nn1c(=S)[nH]c2ccccc2c1=O	> 100	> 100	> 100	> 100	> 100	> 100	> 100	> 100	> 100	–	–	–	–	–	–	–	–	–	–	–
Cc1ccccc1N=Cc1ccc(N(CCC#N)S(=O)(=O)c2ccccc2)cc1	> 100	> 100	> 100	> 100	> 100	> 100	> 100	> 100	> 100	–	–	–	–	–	–	–	–	–	–	–
Cc1c(/C=N/NC(=O)c2ccccc2)c(=O)n(-c2ccccc2)n1C	> 100	> 100	–	> 100	> 100	> 100	> 100	> 100	> 100	–	–	–	–	–	–	–	–	–	–	–
Cn1c(=O)nc2n(-c3ccc(F)cc3)c3ccccc3nc-2c1=O	> 100	–	73.3	45.8	89.1	> 100	67.3	63.7	–	–	–	–	–	–	–	–	–	–	–	–
COc1ccc(Nc2c3c4c(cccc4[nH]c2=O)C(=O)c2ccccc2-3)cc1	0.181	> 100	1.23	–	21.3	18.6	> 100	–	> 100	< 0.0182	0.0239	0.0227	0.0526	0.332	< 0.0218	< 0.0225	0.0373	< 0.0192	–	–
O=C(CCCCCCC(=O)N/N=C/c1ccc(N(c2ccccc2)c2ccccc2)cc1)NO	13.1	1.61	1.24	–	1.86	13.6	–	16.4	4.25	2.72	0.432	3.07	20.5	1.67	0.201	0.314	3.27	–	2.64	–
Cc1ccc(C2(C)NC(=S)N(NC(N)=S)C2=S)cc1 (configuration not stated)	–	> 100	–	> 100	> 100	> 100	> 100	> 100	–	–	–	–	–	–	–	–	–	–	–	–
O=C1Nc2cc(Cl)ccc2Oc2cc(Oc3ccccc3)ccc21	14	> 100	38.8	–	47.3	31.6	50.2	> 100	9.41	2.09	5.51	2.53	9.77	1.32	3.81	12	6.33	4.76	3.24	–
CC(C)(C)C(=O)OCOP(=O)(OCOC(=O)C(C)(C)C)C1CCCN(OC(=O)c2ccccc2)C1=O (configuration not stated)	5.94	20.9	–	> 100	23.2	61.7	16.5	29.7	35.8	0.549	2.53	0.721	7.76	1.25	–	2.16	1.86	2.3	0.643	0.496
O=C(Nc1ncc(Cc2ccccc2)s1)c1ccc2c(c1)OCCO2	32.9	> 74.3	> 39	> 100	–	> 100	–	> 100	> 100	0.0396	0.0546	0.0395	> 100	1.35	0.0406	0.154	0.459	–	0.0484	0.0383
Nc1nc(=O)n(C2CC(O)C(O)C(CO)O2)cc1F (configuration not stated)	–	> 100	–	> 100	> 100	> 100	> 100	> 100	–	–	–	–	–	–	–	–	–	–	–	–
COCC1C(=O)c2cc3c(cc2C12C=CC1(C=C2)OCCO1)OCO3 (configuration not stated)	18.2	–	29.8	11.2	34.9	16	12.6	4.38	29.6	–	–	–	–	–	–	–	–	–	–	–
SC[C@@H]1COC[C@H](CS)S1	> 100	> 100	–	> 100	> 100	> 100	> 100	> 100	–	–	–	–	–	–	–	–	–	–	–	–
COc1cc(-c2cc(/C=C/C(=O)c3ccc4c(c3)OCO4)[nH]n2)cc(OC)c1OC	–	3.78	> 100	9.81	5.73	14.5	> 100	5.96	–	–	1.82	4.23	> 100	–	5.51	2.33	2.97	3.86	1.57	3.2
COC(=O)NNc1c([N+](=O)[O-])cnn(-c2ccccc2)c1=O	16.9	3.2	8.24	–	32.5	7.71	3.29	1.55	3.9	–	–	–	–	–	–	–	–	–	–	–
CN(C)c1ccc(/C=C/C(=O)c2ccccc2)cc1Br	33.3	–	32.9	75.7	74.2	49.3	27.3	62.7	–	–	–	–	–	–	–	–	–	–	–	–
COc1ccc(NC(=O)CC/C(CC(=O)c2ccccc2Cl)=N\Nc2nnc(C)n2N)cc1	> 100	> 100	> 100	> 100	> 100	> 100	–	> 100	> 100	–	–	–	–	–	–	–	–	–	–	–

SMILES	TGI [1] [µM]	TGI [2] [µM]	TGI [3] [µM]	TGI [4] [µM]	TGI [5] [µM]	TGI [6] [µM]	TGI [7] [µM]	TGI [8] [µM]	TGI [9] [µM]	GI50 [1] [µM]	GI50 [2] [µM]	GI50 [10] [µM]	TGI [10] [µM]	GI50 [9] [µM]	GI50 [3] [µM]	GI50 [5] [µM]	GI50 [6] [µM]	GI50 [7] [µM]	GI50 [8] [µM]	GI50 [4] [µM]
COc1ccc(C(=O)/C(=N/Nc2ccccc2)c2ccc(OC)cc2)cc1	> 100	–	> 100	> 100	> 100	–	–	–	–	–	–	–	–	–	–	–	–	–	–	–
O=C(c1ccccc1)c1ccc(Cl)c([N+](=O)[O-])c1	18.9	6.11	20.2	11.9	–	18	17.8	13.5	–	5.97	2.43	21.3	58.3	–	5.5	–	4.48	4.37	3.18	3.44
O=C(c1ccccn1)c1nnn2ccccc12	> 100	> 100	> 100	> 100	> 100	> 100	> 100	> 100	> 100	–	–	–	–	–	–	–	–	–	–	–
CCOC(=O)NC(=O)c1cn(CCCCCOC(=O)NCCCCCCNC(=O)OCCCCCn2cc(C(=O)NC(=O)OCC)c(=O)[nH]c2=O)c(=O)[nH]c1=O	> 100	> 100	> 100	> 100	–	> 100	> 100	> 100	–	–	–	–	–	–	–	–	–	–	–	–
COc1ccc(-c2cn(-c3ccc(Cl)cc3)c(=S)[nH]2)cc1OC	> 100	3.11	> 100	> 100	> 100	> 100	–	> 100	7.63	23.8	1.52	5.3	> 100	0.333	3.24	12.1	24.6	–	> 100	> 100
O=C1NC2OCC(O)C(O1)C2O (configuration not stated)	> 100	> 100	> 100	> 100	> 100	> 100	> 100	> 100	> 100	–	–	–	–	–	–	–	–	–	–	–
O=C(Nc1ccc(Cl)c(Cl)c1)C(=O)C(C1OC(=O)c2ccccc21)[N+](=O)[O-] (configuration not stated)	> 100	> 100	> 100	–	> 100	> 100	> 100	> 100	> 100	–	–	–	> 100	–	–	–	–	–	–	–
CNc1nnnn1C1OC(CO)C(O)C1O (configuration not stated)	> 100	> 100	> 100	> 100	> 100	> 100	> 100	> 100	–	–	–	–	–	–	–	–	–	–	–	–
COC1OCC(OS(=O)(=O)c2ccc(C)cc2)C(OC(=O)c2ccccc2)C1OC(=O)c1ccccc1 (configuration not stated)	> 100	> 100	> 100	> 100	> 100	> 100	–	> 100	> 100	4.04	5.05	3.64	> 100	2.48	4.21	> 100	9.75	–	4.74	3.16
O=C1OC(c2ccccc2)C2CC3CC4(CCC3CN12)OCCO4 (configuration not stated)	> 100	> 100	> 100	> 100	> 100	> 100	> 100	> 100	> 100	–	–	–	–	–	–	–	–	–	–	–
O=C(CC1(O)C(=O)Nc2c(Cl)cccc21)c1ccccc1 (configuration not stated)	> 100	> 100	> 100	> 100	> 100	> 100	> 100	> 100	> 100	–	–	–	–	–	–	–	–	–	–	–
O=C1C(c2ccc([N+](=O)[O-])cc2)=[N+]([O-])c2ccccc21	> 100	60.9	> 100	> 100	91.9	> 100	> 100	> 100	77.4	–	–	–	–	–	–	–	–	–	–	–
Cc1cc2c(cc1C)N1Cc3c(ccc(C)c3C)N(C2)C1 (tested in a mixture with another compound)	> 100	> 100	–	> 100	> 100	> 100	> 100	> 100	–	–	–	–	–	–	–	–	–	–	–	–
COc1ccc(C(=O)C(c2ccc(OC)cc2)C2C(=O)Oc3ccccc32)cc1 (configuration not stated)	> 100	–	–	> 100	> 100	> 100	> 100	> 100	> 100	> 100	–	–	–	> 100	–	> 100	> 100	> 100	> 100	> 100
COc1c(OC(C)=O)c(OC(C)=O)cc2c1-c1ccc(OC)c(=O)cc1C(NC(C)=O)CC2 (configuration not stated)	0.555	> 100	> 100	> 100	> 100	54.4	> 100	> 100	–	–	–	–	74.1	–	–	–	–	–	–	–
N#Cc1ccc(/C=N\N2C(=O)c3ccccc3C2=O)cc1	> 100	> 100	> 100	> 100	> 100	> 100	> 100	> 100	> 100	–	–	–	–	–	–	–	–	–	–	–
CN(CCCCCl)P(=O)(OCc1ccc([N+](=O)[O-])o1)C(F)(F)c1ccc(CC(=O)N[C@@H](CC(=O)O)C(=O)N[C@@H](Cc2ccc(C(F)(F)P(=O)(OCc3ccc([N+](=O)[O-])o3)N(C)CCCCCl)cc2)C(N)=O)cc1 (some centres not stated)	> 100	> 100	> 100	55.7	> 100	> 100	–	> 100	52.3	43	28.2	> 100	> 100	22.5	> 100	76.1	42.9	–	30.2	22.4
O=C(CCCCC(=O)N/N=C\c1ccccc1Cl)N/N=C\c1ccccc1Cl	–	> 100	–	> 100	25.8	56.7	> 100	> 100	19.2	–	> 100	1.2	> 100	1.95	–	4.68	13.5	2.06	> 100	3.02
O=c1oc2c3ccc4ccccc4c3n(CCN3CCOCC3)c2c2ccccc12	> 100	> 100	> 100	–	> 100	> 100	> 100	15.2	> 100	–	–	–	–	–	–	–	–	–	–	–
O=c1cc2n(c(=O)[nH]1)C1OC(C(O)C1O)[C@H]2CCO (some centres not stated)	> 100	> 100	> 100	> 100	> 100	> 100	–	> 100	> 100	–	–	–	–	–	–	–	–	–	–	–
